EC50, IC50 and selectivity ratio data for four compounds are collected here from ChEMBL document CHEMBL1136368, “Antiviral activity of cyclopentenyl nucleosides against orthopox viruses (Smallpox, monkeypox and cowpox)” (Bioorg Med Chem Lett, 2003).

One may read the EC50 as the midpoint of the concentration-response curve. Higher therefore signals weaker potency. As usually defined, the IC50 is the concentration that inhibits the measured activity by half. A low value points to greater potency in that assay.

The subject of series [1] is Vero.
The test system of series [2] is Vero. This is another data set of the same source.
Series [3] deals with Vero. The source holds these as a separate data set.
For series [4], the system named is Vero. The source holds these as a separate data set.
For series [5], the system named is Vero. The source holds these as a separate data set.
The test system of series [6] is Vero. This is another data set of the same source.
In series [7] the test system is Vero. The source holds these as a separate data set.
Series [8] relates to Vero. This is another data set of the same source.
Series [9] concerns Vero. This is another data set of the same source.
The test system of series [10] is Vero. This is another data set of the same source.
A short description of series [11]: in vitro. The conditions noted are these: monkey, Vero 76 cells (ATCC CRL 1587).
Series [12] in a line: in vitro. The conditions noted are these: rhesus monkey, LLC-MK2 cells (ATCC CRL 7).
A short description of series [13]: in vitro. The conditions noted are these: rhesus monkey, LLC-MK2 cells (ATCC CRL 7). The source holds these as a separate data set.
Series [14] in a line: in vitro. Conditions: rhesus monkey, LLC-MK2 cells (ATCC CRL 7). This is another data set of the same source.
A short description of series [15]: in vitro. The conditions noted are these: monkey, Vero 76 cells (ATCC CRL 1587). This is another data set of the same source.
The nature of series [16]: in vitro. Conditions: rhesus monkey, LLC-MK2 cells (ATCC CRL 7). The source holds these as a separate data set.
Series [17] in a line: in vitro. The conditions noted are these: monkey, Vero 76 cells (ATCC CRL 1587). This is another data set of the same source.
Series [18] is described as follows: in vitro. The conditions noted are these: rhesus monkey, LLC-MK2 cells (ATCC CRL 7). The source holds these as a separate data set.
Series [19] is described as follows: in vitro. The conditions noted are these: monkey, Vero 76 cells (ATCC CRL 1587). The source holds these as a separate data set.
The nature of series [20]: in vitro. The conditions noted are these: monkey, Vero 76 cells (ATCC CRL 1587). This is another data set of the same source.

≈ marks a conversion by molar mass, not a printed value.

As for `Nc1nc(=O)n([C@H]2C=C(CO)[C@H](O)[C@@H]2O)cc1F`, the EC50 came out at 1.35 µg/mL (≈ 5.25 µM) with Vero [1]; 2.05 µg/mL (≈ 7.97 µM) in the series with Vero [2]; 2.63 µg/mL (≈ 10.2 µM) with Vero [3]; 1.17 µg/mL (≈ 4.55 µM) with Vero [4]; 1.46 µg/mL (≈ 5.68 µM) with Vero [5]. Also, the half-inhibitory concentration (IC50) is > 100 µg/mL with Vero [6]; 100 µg/mL (≈ 389 µM) in the series on Vero [7]; 39 µg/mL (≈ 152 µM) in the series with Vero [8]; 100 µg/mL (≈ 389 µM) in the series on Vero [9]; > 100 µg/mL in the series on Vero [10]. Further, the selectivity ratio in the series “in vitro [11]” is 86; in “in vitro [12]” it was > 196; in “in vitro [13]”, 189; in the series “in vitro [14]”, 162; in the series “in vitro [15]”, > 74; in “in vitro [16]” it was > 164. Besides, the selectivity ratio was 49 in “in vitro [17]”, > 58 in “in vitro [18]”, 15 in the series “in vitro [19]” and > 69 in “in vitro [20]”.
Consider `OCC1=C[C@@H](n2cnc3c(O)ncnc32)[C@H](O)[C@@H]1O`, for which the EC50 with Vero [1], in the series with Vero [2], with Vero [3], in the series with Vero [4] and in the series with Vero [5] was > 100 µg/mL throughout. For the same compound, the 50% inhibitory concentration (IC50) in the series with Vero [6], in the series with Vero [7], in the series with Vero [8], in the series with Vero [9] and in the series with Vero [10] was > 100 µg/mL each time.
Take `Nc1ccn([C@@H]2C=C(CO)[C@@H](O)[C@H]2O)c(=O)n1`: the EC50 in the series on Vero [1] was 0.05 µg/mL (≈ 0.209 µM); in the series on Vero [2], < 0.05 µg/mL; in the series with Vero [3], < 0.05 µg/mL; in the series with Vero [4], > 100 µg/mL; in the series on Vero [5], 0.04 µg/mL (≈ 0.167 µM). In addition, the IC50 in the series with Vero [6] was 1 µg/mL (≈ 4.18 µM); with Vero [7] it was 4 µg/mL (≈ 16.7 µM); in the series on Vero [8], > 100 µg/mL; with Vero [9] it was 30 µg/mL (≈ 125 µM); in the series with Vero [10] it was 40 µg/mL (≈ 167 µM). Besides, the selectivity ratio was 0.3 in the series “in vitro [11]”; 100 in the series “in vitro [12]”; 300 in the series “in vitro [13]”; > 166 in the series “in vitro [14]”; > 20 in the series “in vitro [15]”; 210 in “in vitro [16]”. Moreover, the selectivity ratio in the series “in vitro [17]” was > 80; in the series “in vitro [18]”, 550; in “in vitro [19]” it was > 2000; in the series “in vitro [20]”, 1000.
Regarding `Nc1ncnc2c1ncn2[C@@H]1C=C(CO)[C@@H](O)[C@H]1O` [NEOPLANOCIN A], the 50% effective concentration (EC50) with Vero [1] is > 100 µg/mL; in the series with Vero [2], 0.21 µg/mL (≈ 0.798 µM); with Vero [3], 0.03 µg/mL (≈ 0.114 µM); in the series with Vero [4] it was 0.14 µg/mL (≈ 0.532 µM); in the series with Vero [5] it was > 100 µg/mL. The IC50 is 20 µg/mL (≈ 76 µM) with Vero [6], 57 µg/mL (≈ 217 µM) with Vero [7], 50 µg/mL (≈ 190 µM) in the series on Vero [8] and > 100 µg/mL in the series with Vero [10]. Besides, the selectivity ratio in the series “in vitro [11]” was 71; in the series “in vitro [12]”, 360; in the series “in vitro [13]”, 12; in the series “in vitro [14]”, 1; in the series “in vitro [15]”, < 0.2; in “in vitro [16]”, 161. Further, the selectivity ratio in the series “in vitro [17]” was 271; in the series “in vitro [18]”, 230; in “in vitro [19]”, 1670; in the series “in vitro [20]” it was 1.
